Among the data in ChEMBL document CHEMBL1799949, “Enantioselective binding of second generation pyrrolobenzoxazepinones to the catalytic ternary complex of HIV-1 RT wild-type and L100I and K103N drug resistant mutants” (Bioorg Med Chem Lett, 2011) are Ki and IC50 values, retold here.

Where only a bound is given, the exact number is not on record here.

The target of assay [1] is T1, Human immunodeficiency virus type 1 reverse transcriptase (Human immunodeficiency virus 1, UniProt Q72547). Briefly: Inhibition of HIV1 free wild type reverse transcriptase.
Assay [2] has as its target T2, Human immunodeficiency virus type 1 reverse transcriptase (Human immunodeficiency virus 1, UniProt Q72547, K103N). Briefly: Inhibition of HIV1 free reverse transcriptase K103N mutant.
Assay [3] deals with T3, Human immunodeficiency virus type 1 reverse transcriptase (Human immunodeficiency virus 1, UniProt Q72547, L100I). Briefly: Inhibition of HIV1 free reverse transcriptase L100I mutant.
Assay [4] has as its target T4, Human immunodeficiency virus type 1 reverse transcriptase (Human immunodeficiency virus 1, UniProt Q72547, V179D). Briefly: Inhibition of HIV1 free reverse transcriptase V179D mutant.
Assay [5] has as its target T1, Human immunodeficiency virus type 1 reverse transcriptase. Briefly: Inhibition of HIV1 wild type reverse transcriptase/poly(rA)/oligo(dT) DNA binary complex.
Assay [6] has as its target T2, Human immunodeficiency virus type 1 reverse transcriptase. Briefly: Inhibition of HIV1 reverse transcriptase K103N mutant/poly(rA)/oligo(dT) DNA binary complex.
Assay [7] addresses T3, Human immunodeficiency virus type 1 reverse transcriptase. Briefly: Inhibition of HIV1 reverse transcriptase L100I mutant/poly(rA)/oligo(dT) DNA binary complex.
Assay [8] addresses T4, Human immunodeficiency virus type 1 reverse transcriptase. Briefly: Inhibition of HIV1 reverse transcriptase V179D mutant/poly(rA)/oligo(dT) DNA binary complex.
The target in assay [9] is T1, Human immunodeficiency virus type 1 reverse transcriptase. Briefly: Inhibition of HIV1 wild type reverse transcriptase/poly(rA)/oligo(dT) DNA/dTTP ternary complex.
Assay [10] addresses T2, Human immunodeficiency virus type 1 reverse transcriptase. Briefly: Inhibition of HIV1 reverse transcriptase K103N mutant/poly(rA)/oligo(dT) DNA/dTTP ternary complex.
Assay [11] addresses T3, Human immunodeficiency virus type 1 reverse transcriptase. Briefly: Inhibition of HIV1 reverse transcriptase L100I mutant/poly(rA)/oligo(dT) DNA/dTTP ternary complex.
For assay [12], the target named is T4, Human immunodeficiency virus type 1 reverse transcriptase. Briefly: Inhibition of HIV1 reverse transcriptase V179D mutant/poly(rA)/oligo(dT) DNA/dTTP ternary complex.
Assay [13] concerns the target T1, Human immunodeficiency virus type 1 reverse transcriptase. Briefly: Inhibition of HIV1 wild type reverse transcriptase.
In assay [14] the target is T2, Human immunodeficiency virus type 1 reverse transcriptase. Briefly: Inhibition of HIV1 reverse transcriptase K103N mutant.
In assay [15] the target is T3, Human immunodeficiency virus type 1 reverse transcriptase. Briefly: Inhibition of HIV1 reverse transcriptase L100I mutant.
The target of assay [16] is T4, Human immunodeficiency virus type 1 reverse transcriptase. Briefly: Inhibition of HIV1 reverse transcriptase V179D mutant.

In general, Ki refers to the equilibrium dissociation constant of an inhibitor or competing ligand from its target. A high value points to lower affinity. Consider `CCC1(c2ccc(CSc3ccc(Br)cc3)cc2)Oc2ccccc2-n2cccc2C1=O` (single isomer, unassigned; (+)), for which the Ki in assay [1] is 400 nM; in [2], 2210 nM; in assay [3], 1200 nM; in assay [4] it was 620 nM; in assay [5] it was 400 nM; in assay [6], 2210 nM. For the same molecule, the Ki in assay [7] was 1200 nM; in [8], 620 nM; in assay [9], 110 nM; in [10] it was 1040 nM; in assay [11], 30 nM; in [12] it was 190 nM.
In general, IC50 refers to the point on the concentration scale where inhibition reaches its midpoint. A lower IC50 goes with greater potency in that assay. Turning to `CCC1(c2ccc(CSc3c(Cl)cccc3Cl)cc2)Oc2ccccc2-n2cccc2C1=O` (racemic), the IC50 in [13] is 7360 nM; in assay [14], > 400000 nM; in assay [15], > 400000 nM; in assay [16], > 40000 nM.
For `CCC1(c2ccc(COc3ccccc3)cc2)Oc2ccccc2-n2cccc2C1=O` (racemic), the IC50 was determined as 150 nM in assay [13], 400 nM in [14] and 200 nM in [15].
`CCC1(c2ccc(COc3cccc(Cl)c3)cc2)Oc2ccccc2-n2cccc2C1=O` (racemic): the IC50 in assay [13] was 100 nM; in [14], 300 nM; in assay [15] it was 250 nM; in assay [16] it was 300 nM.
Take `CCC1(c2ccc(CSc3ccc(Br)cc3)cc2)Oc2ccccc2-n2cccc2C1=O` (racemic): the IC50 in assay [13] was 60 nM; in assay [14] it was 1160 nM; in assay [15] it was > 400000 nM; in assay [16], 290 nM.
Turning to `CCC1(c2ccc(CSc3ccccc3)cc2)Oc2ccccc2-n2cccc2C1=O` (racemic), the IC50 in assay [13] worked out at 60 nM; in [14], 250 nM; in [15], 990 nM; in assay [16], 150 nM.
Turning to `CCC1(c2ccc(CSc3ccccc3)cc2)Oc2ccccc2-n2cccc2C1=O` (single isomer, unassigned; (+)), the Ki is 420 nM in assay [1]; 1350 nM in assay [2]; 700 nM in assay [3]; 780 nM in [4]; 420 nM in assay [5]; 1350 nM in assay [6]. Also, the Ki in assay [7] came out at 700 nM; in assay [8] it was 780 nM; in [9], 100 nM; in [10], 780 nM; in [11] it was 510 nM; in [12] it was 540 nM.
On to `CCC1(c2ccc(CSc3ccc(F)cc3)cc2)Oc2ccccc2-n2cccc2C1=O` (racemic), for which the IC50 in assay [13] is 250 nM; in assay [14] it was 3350 nM; in assay [15], > 400000 nM; in assay [16] it was > 40000 nM.
In the same order, the values of `CCC1(c2ccc(CSc3ccc(F)cc3Cl)cc2)Oc2ccccc2-n2cccc2C1=O` (racemic) are 610 nM, 20500 nM, > 400000 nM and > 40000 nM.
With `CCC1(c2ccc(CSc3ccc(F)cc3Cl)cc2)Oc2ccccc2-n2cccc2C1=O` (single isomer, unassigned; (+)), the Ki in [1] stood at 90 nM; in [2] it was 510 nM; in assay [3] it was 200 nM; in assay [4], 140 nM; in [5] it was 90 nM; in assay [6] it was 510 nM. Also, the Ki in assay [7] came to 200 nM; in assay [8] it was 140 nM; in assay [9] it was 10 nM; in assay [10] it was 20 nM; in [11], 150 nM; in assay [12], 120 nM.
